In patent US20090203707A1, “METHODS FOR TREATING PAIN” (priority 2008, published 2009):

Target: SCN9A (Nav1.7) Na+ channel, α- and β1 subunits, in HEK293 cells (Homo sapiens, UniProt Q15858)
Assay: Whole-cell patch clamp, Nav1.7 peak INa in HEK293 cells (Example 1)
Conditions: 0.1 Hz; for Mean amplitude of Nav1.7 peak INa, fraction of control: −100 mV to 0 mV, 50 msec; for p of logistic fit (Hill coefficient nH) for block of Nav1.7 peak INa / x0 of logistic fit (IC50) for block of Nav1.7 peak INa: holding −100 mV to 0 mV

Chain of SCN9A (Nav1.7) Na+ channel, α- and β1 subunits, in HEK293 cells (Q15858 whole entry): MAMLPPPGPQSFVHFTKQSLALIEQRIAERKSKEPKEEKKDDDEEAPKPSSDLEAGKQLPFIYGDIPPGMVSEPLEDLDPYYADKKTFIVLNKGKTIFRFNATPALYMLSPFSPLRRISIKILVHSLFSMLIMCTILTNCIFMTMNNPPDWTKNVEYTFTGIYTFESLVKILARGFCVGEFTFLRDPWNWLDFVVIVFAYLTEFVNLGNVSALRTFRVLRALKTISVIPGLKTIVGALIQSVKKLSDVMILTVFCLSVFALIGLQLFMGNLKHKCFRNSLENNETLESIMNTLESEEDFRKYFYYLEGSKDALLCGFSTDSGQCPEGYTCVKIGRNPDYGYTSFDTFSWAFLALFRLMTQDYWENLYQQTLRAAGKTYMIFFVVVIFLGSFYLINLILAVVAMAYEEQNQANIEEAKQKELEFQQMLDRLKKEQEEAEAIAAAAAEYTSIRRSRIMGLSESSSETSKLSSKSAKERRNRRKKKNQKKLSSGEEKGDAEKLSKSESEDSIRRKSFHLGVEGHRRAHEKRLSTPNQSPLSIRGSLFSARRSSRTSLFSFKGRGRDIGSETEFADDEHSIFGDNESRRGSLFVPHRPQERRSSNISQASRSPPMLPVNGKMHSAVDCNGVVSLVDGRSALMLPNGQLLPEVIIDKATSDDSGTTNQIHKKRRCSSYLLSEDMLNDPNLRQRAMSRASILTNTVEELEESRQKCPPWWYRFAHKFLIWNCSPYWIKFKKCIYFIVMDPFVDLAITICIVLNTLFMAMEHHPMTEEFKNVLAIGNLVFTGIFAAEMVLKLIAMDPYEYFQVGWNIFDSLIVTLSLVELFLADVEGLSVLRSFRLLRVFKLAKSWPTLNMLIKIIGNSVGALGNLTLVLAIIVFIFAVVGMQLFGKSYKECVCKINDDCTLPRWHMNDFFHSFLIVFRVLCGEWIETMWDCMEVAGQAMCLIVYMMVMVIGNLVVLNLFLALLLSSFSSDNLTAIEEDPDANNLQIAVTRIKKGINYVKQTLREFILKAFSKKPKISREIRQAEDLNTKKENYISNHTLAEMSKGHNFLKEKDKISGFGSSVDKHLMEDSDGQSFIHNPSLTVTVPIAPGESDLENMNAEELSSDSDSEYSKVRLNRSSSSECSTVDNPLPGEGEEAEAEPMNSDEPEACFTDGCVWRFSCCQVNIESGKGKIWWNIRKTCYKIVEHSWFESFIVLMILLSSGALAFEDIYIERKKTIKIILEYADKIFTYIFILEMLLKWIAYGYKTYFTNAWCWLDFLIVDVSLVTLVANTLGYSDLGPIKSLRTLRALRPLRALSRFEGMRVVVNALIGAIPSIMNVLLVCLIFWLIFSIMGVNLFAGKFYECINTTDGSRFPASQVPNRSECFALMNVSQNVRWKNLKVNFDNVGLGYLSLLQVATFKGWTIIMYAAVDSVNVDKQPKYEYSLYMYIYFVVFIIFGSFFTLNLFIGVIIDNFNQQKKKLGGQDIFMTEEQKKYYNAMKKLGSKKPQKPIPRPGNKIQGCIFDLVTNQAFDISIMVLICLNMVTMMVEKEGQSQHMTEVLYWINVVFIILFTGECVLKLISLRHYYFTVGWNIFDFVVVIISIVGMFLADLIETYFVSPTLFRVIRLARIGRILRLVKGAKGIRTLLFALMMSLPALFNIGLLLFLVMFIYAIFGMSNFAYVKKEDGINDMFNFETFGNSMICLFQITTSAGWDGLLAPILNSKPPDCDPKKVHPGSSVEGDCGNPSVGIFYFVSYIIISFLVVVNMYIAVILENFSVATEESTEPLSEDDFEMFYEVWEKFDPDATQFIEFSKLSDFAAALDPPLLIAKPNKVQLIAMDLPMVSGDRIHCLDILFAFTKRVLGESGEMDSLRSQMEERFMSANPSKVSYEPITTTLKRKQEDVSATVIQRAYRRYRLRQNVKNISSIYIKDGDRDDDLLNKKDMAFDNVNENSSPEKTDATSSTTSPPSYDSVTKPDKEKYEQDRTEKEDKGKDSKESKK
Chain of SCN9A (Nav1.7) Na+ channel, α- and β1 subunits, in HEK293 cells (Q07699 19-218 partner): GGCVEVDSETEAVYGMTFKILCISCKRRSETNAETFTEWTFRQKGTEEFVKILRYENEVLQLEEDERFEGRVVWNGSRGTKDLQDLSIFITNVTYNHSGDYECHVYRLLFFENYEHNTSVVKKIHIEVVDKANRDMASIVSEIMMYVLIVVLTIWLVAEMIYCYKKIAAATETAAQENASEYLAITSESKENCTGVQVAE

| Structure (SMILES) | Mean amplitude of Nav1.7 peak INa, fraction of control (1 μM) | Mean amplitude of Nav1.7 peak INa, fraction of control (3 μM) | Mean amplitude of Nav1.7 peak INa, fraction of control (10 μM) | Mean amplitude of Nav1.7 peak INa, fraction of control (30 μM) | Mean amplitude of Nav1.7 peak INa, fraction of control (100 μM) | p of logistic fit (Hill coefficient nH) for block of Nav1.7 peak INa | x0 of logistic fit (IC50) for block of Nav1.7 peak INa [μM] |
| --- | --- | --- | --- | --- | --- | --- | --- |
| COc1ccccc1OC[C@H](O)CN1CCN(CC(=O)Nc2c(C)cccc2C)CC1 [R-Ranolazine, (R)-(+)-N-(2,6-dimethylphenyl)-4-[2-hydroxy-3-(2-methoxyphenoxy)-propyl]-1-piperazineacetamide] | 0.9252 | 0.8286 | 0.6336 | 0.2387 | 0.07855 | 1.212 | 11.33 |
| COc1ccccc1OC[C@@H](O)CN1CCN(CC(=O)Nc2c(C)cccc2C)CC1 [S-Ranolazine, (S)-(−)-N-(2,6-dimethylphenyl)-4-[2-hydroxy-3-(2-methoxyphenoxy)-propyl]-1-piperazineacetamide] | 0.8788 | 0.7285 | 0.5358 | 0.2883 | 0.06853 | 0.9409 | 9.433 |
